Data on four compounds can be found in patent publication US8686224B2, “Plant defense signal peptides” (priority 2005, dated 2014).

For assay [1], the system named is AtproPep1 gene expression. Nature of the assay: Hormone treatments of intact plants, RT-PCR of AtproPep1 and paralogs. It counts as in vivo, Arabidopsis thaliana. How it is done:
Plant stress and hormone treatments. To examine effects of cold stress, plants were placed in a refrigerated growth chamber set to 2° C. To simulate drought stress conditions, plants grown under standard growth chamber conditions were grown without watering. Methyl jasmonate (Bedoukian Research Inc., Danbury Conn.) was applied as a 625 μM solution in 0.1% Triton X-100 to the upper surface of leaves and the plants were incubated in plexiglass boxes. Methyl salicylate (Sigma-Aldrich, St. Louis Mo.), was applied to leaf surfaces at 2 mM in a 0.1% Triton X-100 solution. Ethephon (Phytotechnology Laboratories, Shawnee Mission Kans.) was sprayed on plants as a 7 mM solution in 0.1% Triton X-100 (Sigma-Aldrich, St. Louis Mo.). ABA effects were analyzed by spraying plants with a 100 μM solution (mixed isomer, Sigma-Aldrich, St. Louis Mo.) in 0.1% Triton X-100 (Denekamp and Smeekens, Plant Physiol. 132, 1415-1423, 2003).
Semi-quantitative RT-PCR analysis of relative gene expression levels. RNA was isolated using Trizol reagent and manufacturer's instructions (Invitrogen. Carlsbad Calif.), and 2 μg of RNA template was reverse transcribed with a RETROscript kit (Ambion, Austin Tex.). PCR reactions were carried out with ExTaq Hot Start polymerase and reagents (Fisher Scientific, Pittsburgh Pa.). The AtproPep1 forward and reverse primers with the respective sequences of 5′ […] 3′ (SEQ ID NO: 59) and 5′ […] 3′ (SEQ ID NO: 60) generated a 310 bp intron-spanning product. Primers to β-tubulin (At5g62690) of 5′ […] 3′ (SEQ ID NO: 73) and 5′ […] 3′ (SEQ ID NO: 74) generated a 681 base pair intron-spanning product. An initial denaturing/polymerase activating step of 5 minutes at 94° C. was followed by 31 repetitions of the following three steps: a thirty second denaturation phase at 94° C., a thirty second annealing period at 55.5° C., and a one minute elongation step at 72° C. The amplification program was terminated with a 10 minute final 72° C. elongation phase.
Expression analysis of AtproPep1 in response to abiotic and biotic cues. As a first step in seeking a possible function for AtproPep1 and its encoded peptide, the basal expression level of the gene was assessed in leaves, stems, roots and flowers of Arabidopsis plants was studied using semi-quantitative RT-PCR analysis of AtproPep1 gene expression in response to treatment of leaves with MeJA, ethephon, MeSA, and AtPep1. The relative abundance of the proAtPep1 transcript was estimated from the expression of the β-tubulin gene as a control. Leaves were wounded by crushing once across the mid-vein with a hemostat. Plants were sprayed with a 250 μM solution of MeJA in 0.1% Triton X-100; with a […] solution of MeSA in 0.1% Triton X-100 or with a 7 mM solution of ethephon in 0.1% Triton X-100. […] Total RNA was extracted and analyzed.

Assay [2] has as its system AtPEPR1 and AtPEPR2 transcripts. Nature of the assay: Expression analysis of AtPEPR1 and AtPEPR2 (Northern hybridization, quantitative RT-PCR). It counts as in vivo, Arabidopsis thaliana. As to conditions: within 30 min. How it is done:
Expression analysis of AtPEPR1 and AtPEPR2. […] In order to elucidate the role of AtPEPR2 in AtPeps signal transduction, the gene expression patterns were analyzed in comparison with AtPEPR1.

The test system of assay [3] is GmPROPEP and soybean defense-related gene expression. Nature of the assay: Soybean gene expression by semi-quantitative RT-PCR. Format: in vivo. How it is done:
Precursor gene expression of soybean homologues of the AtPep peptide, GmPROPEP1, GmPROPEP2 and GmPROPEP3, were analyzed by semi-quantitative RT-PCR. GmPROPEP2 and GmPROPEP3 were expressed in leaves, stems and roots. GmPROPEP1 was expressed mainly in roots, and very weakly in leaves and stems. The transcripts of GmPROPEP1 increased 4-fold 1 hour after supplying MeJA and 3-fold 8 hours after wounding. The transcripts of GmPROPEP2 increased 5-fold 2 hours after supplying MeJA. GmPep1-3 also affected the precursor gene expression. The GmPROPEP1 was induced by infiltration of GmPep1-3 (50 nM), and GmPROPEP2 was induced by GmPep2 (50 nM) and GmPep3 (50 nM) infiltration.
To examine whether GmPep1-3 are involved in defense responses, expression of soybean defense-related genes were analyzed by semi-quantitative RT-PCR after GmPep1-3 infiltration. The transcripts of D6aH/CYP93a1, a biosynthetic enzyme of the soybean phytoalexin glyceollin (Schopfer et al., FEBS Lett. 432: […], 1998), were induced 2 to 3-fold by GmPep1-3 infiltration.

Assay [4] concerns the target T1, AtPEPR1 (Arabidopsis thaliana, UniProt Q9SSL9).
T1 construct: Tobacco cells were transformed with a CaMV-35S-AtPEPR1 gene; expressed in transfected cells; host or cells: tobacco suspension-cultured cells (Agrobacterium-mediated, CaMV 35S promoter)
T1 sequence (Q9SSL9 29-1123): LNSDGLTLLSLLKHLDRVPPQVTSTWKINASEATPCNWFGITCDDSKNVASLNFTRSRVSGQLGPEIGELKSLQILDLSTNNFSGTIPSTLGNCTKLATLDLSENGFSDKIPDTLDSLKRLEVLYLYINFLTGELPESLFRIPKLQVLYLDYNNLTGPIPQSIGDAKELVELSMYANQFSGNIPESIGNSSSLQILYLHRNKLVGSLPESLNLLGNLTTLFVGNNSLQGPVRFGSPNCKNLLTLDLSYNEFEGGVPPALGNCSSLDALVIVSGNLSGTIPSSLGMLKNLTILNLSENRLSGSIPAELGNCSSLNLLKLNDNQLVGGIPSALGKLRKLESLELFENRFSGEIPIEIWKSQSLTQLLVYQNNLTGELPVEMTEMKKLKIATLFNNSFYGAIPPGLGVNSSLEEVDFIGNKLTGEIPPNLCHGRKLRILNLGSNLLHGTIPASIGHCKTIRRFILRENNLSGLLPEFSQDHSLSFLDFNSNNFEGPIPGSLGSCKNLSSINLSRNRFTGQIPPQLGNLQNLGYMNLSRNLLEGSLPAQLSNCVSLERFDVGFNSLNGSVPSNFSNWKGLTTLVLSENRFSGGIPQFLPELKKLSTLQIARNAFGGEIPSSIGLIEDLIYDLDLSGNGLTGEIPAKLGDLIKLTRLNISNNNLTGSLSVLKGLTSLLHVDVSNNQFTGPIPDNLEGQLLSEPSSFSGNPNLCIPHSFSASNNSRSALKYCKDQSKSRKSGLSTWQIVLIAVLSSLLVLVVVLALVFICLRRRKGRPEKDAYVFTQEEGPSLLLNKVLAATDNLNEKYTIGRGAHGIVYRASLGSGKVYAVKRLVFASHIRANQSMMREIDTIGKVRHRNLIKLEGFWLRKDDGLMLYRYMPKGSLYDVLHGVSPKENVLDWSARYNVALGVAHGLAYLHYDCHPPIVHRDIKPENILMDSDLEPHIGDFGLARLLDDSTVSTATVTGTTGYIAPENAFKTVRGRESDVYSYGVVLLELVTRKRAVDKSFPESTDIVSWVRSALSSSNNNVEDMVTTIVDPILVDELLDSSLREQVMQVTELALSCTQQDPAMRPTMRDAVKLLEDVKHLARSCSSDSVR
Nature of the assay: Medium alkalinization of transgenic tobacco cells expressing AtPEPR1. It counts as cell-based. The text has this: Tobacco cells were transformed with a CaMV-35S-AtPEPR1 gene to determine whether the foreign receptor protein was targeted to the cell surface, where, in response to AtPep1, it would activate intracellular signaling to effect the alkalinization of the medium of the transgenic tobacco cells. Expression of the AtPEPR1 gene was confirmed by RT-PCR analysis of RNA from three independently transformed tobacco cell lines. […] AtPep2-7 was also supplied to the transgenic tobacco cells expressing AtPEPR1.
(§1) To clarify whether AtPEPR2 binds to AtPep1, the AtPEPR2 coding region was fused to the CaMV 35S promoter and introduced into tobacco suspension-cultured cells by Agrobacterium. Tobacco cells expressing AtPEPR1 and GUS genes were also created as positive and negative controls, respectively. […] These transgenic lines were analyzed for alkalinizing activity as previously described (Pearce et al., Proc. Natl. Acad. Sci. USA 98, 12843-12847, 2001).
(§2) The response to all AtPep peptides in transgenic tobacco cells expressing either AtPEPR1 or AtPEPR2 was analyzed by the medium alkalinization assay.

Assay [5] deals with OsPEPR1. In words: Medium alkalinization of transgenic tobacco cells expressing OsPEPR1. It counts as cell-based, rice. An excerpt: (§3) We identified rice homologues of AtPEPR1 in the Rice Annotation Project database (see the website located at www.rapdb.dna.affrc.go.jp). The rice homologues, OsPEPR1 (Os08g0446200) and OsPEPR2 (Os08g0446400), have 60% and 62% amino acid similarities, respectively. The OsPEPR1 has 26 LRRs in the extracellular region, which is the same as AtPEPR1. The OsPEPR2 has a shorter extracellular region with 22 LRRs. Transgenic tobacco cells expressing either OsPEPR1 or OsPEPR2 were created to examine the possibility of receptor binding to monocot peptides. OsPep3a, OsPep3b, OsPep3c, ZmPep1 and ZmPep4a were supplied to suspension cultured transgenic tobacco cells, and medium pH was measured. OsPep3a, OsPep3b, ZmPep1 and ZmPep4a caused medium alkalinization in OsPEPR1 expressing cells with a 1.2 pH unit increase and a half-maximal activity of 0.25 nM.

Assay [6] relates to OsPEPR2. Nature of the assay: Medium alkalinization of transgenic tobacco cells expressing OsPEPR2. Format: cell-based, rice.
From the text: as §3

In assay [7] the target is T2, AtPEPR2 (Arabidopsis thaliana, UniProt Q9FZ59).
T2 construct: the AtPEPR2 coding region was fused to the CaMV 35S promoter and introduced into tobacco suspension-cultured cells; expressed in transfected cells; host or cells: tobacco suspension-cultured cells, transformed by Agrobacterium, kanamycin-selected
T2 sequence (Q9FZ59 27-1088): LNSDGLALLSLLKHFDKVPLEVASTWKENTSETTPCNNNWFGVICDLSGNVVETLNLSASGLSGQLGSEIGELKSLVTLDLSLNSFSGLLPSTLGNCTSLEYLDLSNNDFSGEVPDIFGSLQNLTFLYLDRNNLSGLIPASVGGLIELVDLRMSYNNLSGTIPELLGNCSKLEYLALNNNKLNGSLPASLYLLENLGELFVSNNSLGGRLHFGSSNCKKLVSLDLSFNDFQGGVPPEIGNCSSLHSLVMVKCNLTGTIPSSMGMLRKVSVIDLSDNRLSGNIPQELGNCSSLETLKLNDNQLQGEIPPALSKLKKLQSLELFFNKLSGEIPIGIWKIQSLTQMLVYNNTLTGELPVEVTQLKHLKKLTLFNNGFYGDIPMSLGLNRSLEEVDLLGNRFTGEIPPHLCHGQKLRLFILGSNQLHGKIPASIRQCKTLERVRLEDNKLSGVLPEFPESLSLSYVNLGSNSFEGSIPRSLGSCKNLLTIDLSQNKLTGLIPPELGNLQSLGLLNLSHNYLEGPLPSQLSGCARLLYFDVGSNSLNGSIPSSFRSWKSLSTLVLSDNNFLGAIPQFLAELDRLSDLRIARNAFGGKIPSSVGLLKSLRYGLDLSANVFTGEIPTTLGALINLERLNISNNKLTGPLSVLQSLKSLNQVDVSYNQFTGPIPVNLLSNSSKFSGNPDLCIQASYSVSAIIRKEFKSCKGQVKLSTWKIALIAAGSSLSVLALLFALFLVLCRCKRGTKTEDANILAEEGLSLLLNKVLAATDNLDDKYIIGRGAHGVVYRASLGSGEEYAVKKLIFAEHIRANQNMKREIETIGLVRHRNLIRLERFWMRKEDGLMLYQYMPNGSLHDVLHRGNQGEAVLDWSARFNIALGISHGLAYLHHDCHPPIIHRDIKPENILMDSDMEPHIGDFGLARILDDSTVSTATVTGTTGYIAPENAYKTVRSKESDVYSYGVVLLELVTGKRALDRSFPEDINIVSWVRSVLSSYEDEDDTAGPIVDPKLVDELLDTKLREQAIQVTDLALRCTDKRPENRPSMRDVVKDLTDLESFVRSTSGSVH
Nature of the assay: Medium alkalinization of transgenic tobacco cells expressing AtPEPR2. Format: cell-based. How it is done: as §1, §2

No end group written: not given here.

Chain of OsPEPR2 (as listed by the source): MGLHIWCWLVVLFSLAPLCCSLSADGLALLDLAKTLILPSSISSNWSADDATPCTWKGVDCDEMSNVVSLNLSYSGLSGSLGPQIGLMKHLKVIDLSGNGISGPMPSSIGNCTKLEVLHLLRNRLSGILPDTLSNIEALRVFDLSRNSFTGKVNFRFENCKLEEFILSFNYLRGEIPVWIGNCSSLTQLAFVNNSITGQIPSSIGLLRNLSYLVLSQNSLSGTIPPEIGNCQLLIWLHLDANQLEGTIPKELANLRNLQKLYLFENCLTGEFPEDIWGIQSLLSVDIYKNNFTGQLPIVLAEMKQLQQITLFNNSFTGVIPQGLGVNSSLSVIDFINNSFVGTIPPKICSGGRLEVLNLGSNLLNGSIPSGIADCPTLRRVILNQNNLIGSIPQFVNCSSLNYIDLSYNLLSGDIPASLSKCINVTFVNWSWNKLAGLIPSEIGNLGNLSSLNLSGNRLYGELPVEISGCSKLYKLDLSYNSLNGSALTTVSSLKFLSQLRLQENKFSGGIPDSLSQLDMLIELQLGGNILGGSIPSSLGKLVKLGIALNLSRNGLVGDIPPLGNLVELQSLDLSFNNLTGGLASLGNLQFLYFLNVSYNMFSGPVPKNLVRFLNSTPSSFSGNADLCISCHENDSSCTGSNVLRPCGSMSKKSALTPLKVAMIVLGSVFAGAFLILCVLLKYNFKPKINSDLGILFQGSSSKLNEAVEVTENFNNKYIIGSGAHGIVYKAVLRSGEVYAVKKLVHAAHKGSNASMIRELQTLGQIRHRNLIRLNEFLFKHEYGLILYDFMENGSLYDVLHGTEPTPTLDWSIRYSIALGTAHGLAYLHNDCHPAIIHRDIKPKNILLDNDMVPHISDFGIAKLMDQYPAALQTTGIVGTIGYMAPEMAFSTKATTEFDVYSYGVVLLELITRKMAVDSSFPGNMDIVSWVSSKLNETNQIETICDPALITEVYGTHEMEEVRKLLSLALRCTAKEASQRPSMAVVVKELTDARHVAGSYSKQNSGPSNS
Chain of OsPEPR1 (as listed by the source): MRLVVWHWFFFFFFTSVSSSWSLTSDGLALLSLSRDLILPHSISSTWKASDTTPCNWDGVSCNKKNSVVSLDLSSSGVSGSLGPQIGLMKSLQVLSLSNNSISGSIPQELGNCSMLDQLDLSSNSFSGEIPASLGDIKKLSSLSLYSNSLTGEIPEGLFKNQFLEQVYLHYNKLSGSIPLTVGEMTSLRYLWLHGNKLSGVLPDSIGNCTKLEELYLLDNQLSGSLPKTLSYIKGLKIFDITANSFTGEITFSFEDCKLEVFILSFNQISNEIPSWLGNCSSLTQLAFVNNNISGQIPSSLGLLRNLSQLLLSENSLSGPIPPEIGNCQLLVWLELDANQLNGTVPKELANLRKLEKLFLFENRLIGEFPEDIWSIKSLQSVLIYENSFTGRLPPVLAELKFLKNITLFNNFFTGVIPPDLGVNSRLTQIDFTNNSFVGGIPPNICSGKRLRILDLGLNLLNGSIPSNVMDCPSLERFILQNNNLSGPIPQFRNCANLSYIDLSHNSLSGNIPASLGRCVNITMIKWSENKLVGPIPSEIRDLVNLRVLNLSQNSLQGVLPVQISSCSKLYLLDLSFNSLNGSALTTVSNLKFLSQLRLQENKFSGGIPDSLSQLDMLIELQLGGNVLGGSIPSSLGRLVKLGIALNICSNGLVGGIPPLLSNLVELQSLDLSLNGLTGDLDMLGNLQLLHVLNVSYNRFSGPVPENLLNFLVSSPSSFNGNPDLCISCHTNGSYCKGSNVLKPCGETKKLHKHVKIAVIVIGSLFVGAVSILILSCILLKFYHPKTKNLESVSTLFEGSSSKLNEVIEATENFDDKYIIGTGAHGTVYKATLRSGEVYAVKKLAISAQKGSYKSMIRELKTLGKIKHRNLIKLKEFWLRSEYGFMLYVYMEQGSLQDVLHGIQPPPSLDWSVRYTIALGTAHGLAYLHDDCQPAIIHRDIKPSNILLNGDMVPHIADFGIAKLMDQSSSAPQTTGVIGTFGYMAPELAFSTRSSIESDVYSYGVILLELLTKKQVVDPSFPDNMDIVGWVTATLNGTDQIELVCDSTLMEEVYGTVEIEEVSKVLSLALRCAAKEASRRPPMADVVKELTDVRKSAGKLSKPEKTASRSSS

In the case of `CC/C=C\CC1C(=O)CCC1CC(=O)OC` (stereo not drawn) [MeJA, methyl jasmonate], in assay [1] (At5g64905, At5g64900, At5g64890, At5g09980), the “expression of AtproPep1 paralogs after spraying” value is “expressed relatively strongly”. Moreover, the “expression of the AtproPep1 gene in intact plants” value in assay [1] (sprayed: MeJA 250 μM, ethephon 7 mM, within an hour) was “induced a strong expression”. Also, the “induction of AtPEPR1 and AtPEPR2 transcripts” value in assay [2] is “induced”. For the same compound, in assay [3] (1 hour after supplying), the “increase of GmPROPEP1 transcripts” value was 4 fold. Further, the “increase of GmPROPEP2 transcripts” value in assay [3] (2 hours after supplying) was 5 fold.
“EIKARGKNKTKPTPSSGKGGKHN [AtPep3, DNKAKSKKRDKEKPSSGRPGQTN]”: the maximal change in assay [4] (AtPEPR1 expressing tobacco cells) is listed as 1.2 pH units. Also, in assay [2], the “induction of AtPEPR1 and AtPEPR2 transcripts” value is listed as “strong inducer”.
As for “SLAGANVLVRDAPPETGGGPHHN (SLAGANVLVRDAPPETGGGPHHN) [OsPep3c]”, the results for the medium alkalinization activity entry in assay [5] and in assay [6] were “did not show any activity” and “weak activity”, respectively. Further, in assay [6] (peptide at 250 nM), the “medium pH increase” value turned out to be 0.5 pH unit.
Broadly, the EC50 is the concentration at which the effect is half-maximal. Lower therefore signals a more potent agent. In the case of “SLNVMRKGIRKQPVSSGKRGGVN [AtPep2, SLNVMRKGIRKQPVSSGKRGGVN]”, the EC50 in assay [4] and in assay [7] was ~0.25 nM each time.
